Publication PMC9181987, “Disclosing the Potential of Fluorinated Ionic Liquids as Interferon-Alpha 2b Delivery Systems” (Nanomaterials, 2022)

Experiment: Tensiometry (Du Noüy ring): surface tension breakpoints, surface properties, critical packing parameters
Format: physicochemical
Details: 25°C
Experimental: The force tensiometer is equipped with a platinum Du Noüy ring to surface tension measurement and a thermostatic vessel connected to a bath circulator (RW-0535G, Lab. Companion, Daejeon, Republic of Korea) in order to keep the temperature of the solution constant. Next, 15 mL of each sample was placed in a glass container and left to equilibrate in the thermostatic vessel. After temperature equilibration, the surface tension was measured. The equipment is a standalone-controlled instrument, and the calibration was conducted with a calibration weight with a known mass before measuring the samples. Each sample was measured five times, and the reported surface tension was the average value with an uncertainty of ±0.22 mN/m. Each solution was then assessed by a KSV’s contact angle goniometer CAM100 (Biolin Scientific, Gothenburg, Sweden). A drop of each solution was placed on a Teflon surface with a Hamilton syringe. This equipment is a PC-controlled instrument, and the tilt was set to 0 degrees at the base of the drop and was recorded for 10 frames with an interval of 1 s. The contact angle was calculated for the left and right sides of the drop and the mean value was the resulting contact angle. At least five different drops of each solution were recorded, and the reported contact angle was the resulting average with an uncertainty of ±5%.
After the evaluation of the CACs, other properties can be taken from the surface tension data. […] The n parameter is deduced from the degree of ionization of aggregates, α, as n = 2 − α, determined from the conductivity profile of the FIL and assumed to be the same for the surface layer in ionic surfactants.
From the Γmax and Avogadro’s number (NA) the minimum area occupied per surfactant molecule at the air/water interface, Amim, can be obtained as set by:(4) Amin=10^18/NAΓmax
In addition, the parameter that explains the efficacy of a surfactant to reduce the surface tension, ΠCAC, was determined, expressing the maximum surface tension diminution resulting from the dissolution of surfactant molecules. This parameter is determined by the surface tension of the solvent ( γ0 ) and the γCAC , as follows:(5) ΠCAC=γ0−γCAC
Them, from ΠCAC, the standard free energy of adsorption, ΔGad0 , was calculated using the following equation [55]:(6) ΔGad0=ΔGagg0−ΠCAC/Γmax
Finally, aiming to disclose information on the self-aggregation process and the shape of the aggregates, the critical packing parameter, P, was also calculated in this work, as follows:(7) P=V0/Aminlc where V0 and lc are the volume occupied by the hydrophobic chains in the aggregate core and the critical chain length, respectively. The structure of the aggregates is defined as spherical when P ≤ 0.33, cylindrical for P ≤ 0.5, lamellar when P ≤ 1, and inverted for P > 1 [38].

[1] = 5 μg/mL IFN-α 2b + 5 mM NaH2PO4 (pH=7.4), 1st breakpoint
[2] = 5 μg/mL IFN-α 2b + 5 mM NaH2PO4 (pH=7.4), 2nd breakpoint
[3] = 5 μg/mL IFN-α 2b + 5 mM NaH2PO4 (pH=7.4), 3rd breakpoint
[4] = 5 μg/mL IFN-α 2b + 5 mM NaH2PO4 (pH=7.4), 4th breakpoint

CCn1cc[n+](C)c1.O=S(=O)([O-])C(F)(F)C(F)(F)C(F)(F)C(F)(F)F [[C2C1Im][C4F9SO3], 1-Ethyl-3-methylimidazolium perfluorobutanesulfonate]
CAC (wFIL), tensiometer [1]: 0.0008 | CAC, tensiometer [1]: 1.963 mmol⸱kg-1 | surface tension at CAC, γCAC [1]: 51.4 mN m-1 | CAC (wFIL), tensiometer [2]: 0.0025 | CAC, tensiometer [2]: 6.105 mmol⸱kg-1 | surface tension at CAC, γCAC [2]: 48.2 mN m-1 | CAC (wFIL), tensiometer [3]: 0.0089 | CAC, tensiometer [3]: 21.61 mmol⸱kg-1 | surface tension at CAC, γCAC [3]: 38.3 mN m-1 | 10^6 Γmax, maximum surface excess concentration [4]: 4.41 mol m-2 | Amin, minimum area per surfactant molecule at the air/water interface [4]: 0.38 nm2 | CAC (wFIL), tensiometer [4]: 0.0335 | CAC, tensiometer [4]: 81.59 mmol⸱kg-1 | critical packing parameter Peq 8 [4]: 0.7439 | critical packing parameter Peq 9 [4]: 0.7481 | surface tension at CAC, γCAC [4]: 24.3 mN m-1 | ΔG0ad, standard free energy of adsorption [4]: -7.734 kcal/mol | ΠCAC, efficacy to reduce the surface tension [4]: 37.8 mN m-1 | 10^6 Γmax, maximum surface excess concentration (5 mM NaH2PO4 (pH=7.4)): 3.26 mol m-2 | Amin, minimum area per surfactant molecule at the air/water interface (5 mM NaH2PO4 (pH=7.4)): 0.51 nm2 | CAC (wFIL), tensiometer (5 mM NaH2PO4 (pH=7.4)): 0.0330 | CAC, tensiometer (5 mM NaH2PO4 (pH=7.4)): 80.35 mmol⸱kg-1 | critical packing parameter Peq 8 (5 mM NaH2PO4 (pH=7.4)): 0.550 | critical packing parameter Peq 9 (5 mM NaH2PO4 (pH=7.4)): 0.553 | surface tension at CAC, γCAC (5 mM NaH2PO4 (pH=7.4)): 24.6 mN m-1 | ΔG0ad, standard free energy of adsorption (5 mM NaH2PO4 (pH=7.4)): -9.8 kcal/mol | ΠCAC, efficacy to reduce the surface tension (5 mM NaH2PO4 (pH=7.4)): 46.4 mN m-1
